Laboratory results as given in article PMC11597089, “Kratom Alkaloids: A Blood–Brain Barrier Specific Membrane Permeability Assay-Guided Isolation and Cyclodextrin Complexation Study” (Molecules, 2024).

Experiments:
[1] = PAMPA-BBB permeability assay; assay type: in vitro ADME, porcine; conditions: for in vitro BBB permeability: PAMPA-BBB, in words; for Papp at 4 h, 100 µM: pig, PAMPA, read-out: logPe PAMPA-BBB (n = 9) (converted)
Description: Kratom extracts were tested for the membrane permeability of their constituents in a PAMPA-BBB assay. […] The blood–brain barrier-specific assay was tested and optimized for natural products by Könczöl et al.; this PAMPA-BBB assay was therefore chosen to determine the BBB permeability of the kratom constituents. […] It should be noted, however, that among the minor components that were not the focus of this study, there may be BBB+ compounds with significant biological activity.
All four isolated kratom alkaloids were also tested in the PAMPA-BBB model. As it can be seen in Table 1, all the investigated compounds had logPe values of between −4.42 and −4.77, which were greater than −6.0; according to Könczöl et al., this value effectively discriminates between compounds with good (BBB+) and poor (BBB−) blood–brain barrier permeability.
PAMPA-BBB was used to determine the effective permeability (Pe) for some extracts and the isolated compounds. Stock solutions (10 mM in DMSO) were diluted with the buffer (pH 7.4) to obtain the donor solutions (composition: 594.0 μL buffer + 6.0 μL stock solution). The buffer was prepared as follows: one PBS (phosphate-buffered saline, pH 7.4; Sigma Aldrich, Budapest, Hungary) tablet dissolved in 200.0 mL distilled water. Donor solutions were filtered through Phenex-RC 15 mm, 0.2 μm syringe filters (Gen-Lab Ltd., Budapest, Hungary).
For PAMPA-BBB, 5 μL of porcine polar brain lipid extract (PBLE) solution (16.0 mg of PBLE + 8.0 mg of cholesterol dissolved in 600.0 μL of n-dodecane) was applied to each well of 96-well polycarbonate-based filter donor plates (top plate) (Multiscreen™-IP, MAIPN4510, pore size 0.45 μm; Merck). The 96-well PTFE acceptor plates (bottom plates) (Multiscreen Acceptor Plate, MSSACCEPTOR; Merck) were filled with 300.0 μL of buffer solution (0.01 M PBS buffer, pH 7.4). The donor plate was placed upon the acceptor plate, and both plates were incubated together at 37 °C for 4 h in a Heidolph Titramax 1000 Vibrating platform shaker (Heidolph, Schwabach, Germany).
After incubation, sandwich plates were separated, and the concentrations of each compound in the starting donor solution and in the acceptor and donor wells were determined in triplicate by the chromatographic peak areas derived from the UHPLC-UV method described above. The UV spectra and chromatograms were recorded at 200–400 nm, and the chromatograms acquired at the UV absorption maxima of each compound were used for data evaluation. The effective permeability and the membrane retention in PAMPA-BBB were calculated by Equations (1) and (2), respectively:(1) Pe=−2.303/A(t−τSS)·(VA·VD/VA+VD)·lg[1−(VA+VD/(1−MR)·VD)×(CA(t)/CD(0))] where Pe is the effective permeability coefficient (cm/s), A is the filter area (0.24 cm^2), VD and VA are the volumes in the donor (0.15 cm^3) and acceptor phases (0.30 cm^3), t is the incubation time (s), τSS is the time (s) to reach the steady state (240 s), CD(t) is the concentration (mol/cm^3) of the compound in the donor phase at time t, CD(0) is the concentration (mol/cm^3) of the compound in the donor phase at time 0, and MR is the estimated membrane retention factor (the estimated mole fraction of solute lost to the membrane), defined as (2) MR=1−CD(t)/CD(0)−VA/VDCA(t)/CD(0)
All experiments were performed in triplicate on three consecutive days (n = 9); caffeine standard was used as the positive control, with rutin as the negative control.

[2] = ACE complex stability, RAME-β-CD; assay type: physicochemical; conditions: randomly methylated-β-CD DS~12, 30 mM phosphate buffer pH 7.4, 25 °C
Description: (§1) To investigate the CD complexation behavior of the four kratom alkaloids, we aimed to develop an ACE method for a systematic comparative study. […] To ensure sufficient buffer capacity and to avoid excessive current and Joule heat generation, the buffer concentration was set to 30 mM, and the applied voltage was 15 kV.
(§2) The ACE experiments were performed by using Agilent 7100 and HP^3DCE instruments (Agilent Technologies, Waldbronn, Germany). Untreated fused silica capillaries (total length of 48.5 cm, effective length of 40 cm, inner diameter of 50 μm) were purchased from Agilent Technologies. The new capillaries were conditioned with a 1 M NaOH wash for 1 h, followed by a 30 min wash each with 0.1 M NaOH and purified water. Prior to all runs, the capillary was preconditioned by rinsing with background electrolyte for 3 min. During the measurements, 30 mM phosphate buffer at pH 7.4 (30 mM Na2HPO4-NaOH) was used. The background electrolyte contained CDs at various concentrations. Stock solutions of the studied kratom alkaloids (mitragynine, paynantheine, speciogynine, speciociliatine) were prepared separately in methanol (1 mg/mL), and, right before the measurements, appropriate dilutions with purified water were used to prepare the sample solutions, applying 0.1% DMSO as the electroosmotic flow (EOF) marker. The samples were injected hydrodynamically at 40 mbar for 3 s. The positive polarity voltage was set to 15 kV, and the capillary was set to 25 °C. The electropherograms were recorded at four wavelengths (200 nm, 210 nm, 215 nm, and 220 nm), and the data were evaluated at 215 nm. In each case, three parallel measurements were performed. The measurements were evaluated using Origin and CEval software (v. 0.6i3).
(§3) In order to determine the complex stability constants that characterized the strength of the complexes, the first step was to determine the effective mobility of the analyte at specific CD concentrations. Triangular peaks caused by electromigration dispersion are often observed in ACE measurements.
(§4) Assuming a 1:1 complexation ratio and that the equilibrium CD concentration is almost equal to the total CD concentration, a relationship between the effective mobility relative to the EOF and the complex stability constant can be described by Function (4) (4) μeff=μA+μACDKstabCD/1+KstabCD where µeff is the effective mobility of the analyte, µA and µACD are the free and complexed analyte mobilities, [CD] is the concentration of the selector, and Kstab is the complex stability constant.
(§5) In order to calculate the exact, apparent, averaged complex stability constant values, viscosity correction and ionic strength correction were used.

[3] = ACE complex stability, HP-β-CD; assay type: physicochemical; conditions: hydroxypropylated-β-CD DS~4.5, 30 mM phosphate buffer pH 7.4, 25 °C
Description: as §1, §2
as §3, with “measurements. […]” for “measurements.”

[4] = ACE complex stability, Sualfadex; assay type: physicochemical; conditions: hexakis-(6-deoxy-6-(2-carboxyethyl)thio)-α-CD, 30 mM phosphate buffer pH 7.4, 25 °C
Description: as §1, §2, §3, §4, §5

[5] = ACE complex stability, Succ-β-CD; assay type: physicochemical; conditions: succinyl-β-CD DS~6, 30 mM phosphate buffer pH 7.4, 25 °C
Description: as §1, §2, §3, §4, §5

[6] = ACE complex stability, HxDMS-α-CD; assay type: physicochemical; conditions: hexakis-(2,3-O-dimethyl, 6-O-sulfo)-α-CD, 30 mM phosphate buffer pH 7.4, 25 °C
Description: as §1, §2, §3, §4, §5

[7] = ACE complex stability, ODMS-γ-CD; assay type: physicochemical; conditions: octakis-(2,3-O-dimethyl, 6-O-sulfo)-γ-CD, 30 mM phosphate buffer pH 7.4, 25 °C
Description: as §1, §2, §3, §4, §5

[8] = pH 7.4, 37 °C, 4 h, n = 9, Pe in cm/s

For `CC[C@@H]1CN2CCc3c([nH]c4cccc(OC)c34)[C@H]2C[C@@H]1/C(=C\OC)C(=O)OC` [Speciociliatine, speciociliatine], the “in vitro BBB permeability” value [1] was “excellent”, the Papp at 4 h, 100 µM [1, 8] was 263 nm/s and the “complex stability constant (Kstab) with RAME-β-CD” value [2] was 20 ± 2 M⁻¹. The “complex stability constant (Kstab) with HP-β-CD” value [3] was 30 ± 3 M⁻¹, the “complex stability constant (Kstab) with Sualfadex” value [4] was 250 ± 45 M⁻¹ and the “complex stability constant (Kstab) with Succ-β-CD” value [5] was 470 ± 35 M⁻¹. The “complex stability constant (Kstab) with HxDMS-α-CD” value [6] was 240 ± 20 M⁻¹ and the “complex stability constant (Kstab) with ODMS-γ-CD” value [7] was 230 ± 15 M⁻¹.
In the case of mitragynine, the “in vitro BBB permeability” value [1] is reported as “excellent”, the “logPe PAMPA-BBB (n = 9)” value [1, 8] is reported as −4.42 ± 0.61 and the “complex stability constant (Kstab) with RAME-β-CD” value [2] is reported as 95 ± 9 M⁻¹. The “complex stability constant (Kstab) with HP-β-CD” value [3] was 35 ± 2 M⁻¹, the “complex stability constant (Kstab) with Sualfadex” value [4] was 200 ± 25 M⁻¹ and the “complex stability constant (Kstab) with Succ-β-CD” value [5] was 375 ± 20 M⁻¹. The “complex stability constant (Kstab) with HxDMS-α-CD” value [6] was 50 ± 10 M⁻¹ and the “complex stability constant (Kstab) with ODMS-γ-CD” value [7] was 80 ± 7 M⁻¹.
For `CC[C@H]1CN2CCc3c([nH]c4cccc(OC)c34)[C@@H]2C[C@@H]1/C(=C\OC)C(=O)OC` [Speciogynine, speciogynine], the “in vitro BBB permeability” value [1] was “excellent”, the Papp at 4 h, 100 µM [1, 8] was 170 nm/s and the “complex stability constant (Kstab) with RAME-β-CD” value [2] was 40 ± 1 M⁻¹. The “complex stability constant (Kstab) with Sualfadex” value [4] was 75 ± 20 M⁻¹, the “complex stability constant (Kstab) with Succ-β-CD” value [5] was 840 ± 80 M⁻¹ and the “complex stability constant (Kstab) with HxDMS-α-CD” value [6] was 40 ± 4 M⁻¹. The “complex stability constant (Kstab) with ODMS-γ-CD” value [7] was 250 ± 15 M⁻¹.
For `C=C[C@H]1CN2CCc3c([nH]c4cccc(OC)c34)[C@@H]2C[C@@H]1/C(=C\OC)C(=O)OC` [Paynantheine, paynantheine], the “in vitro BBB permeability” value [1] was “excellent”, the Papp at 4 h, 100 µM [1, 8] was 245 nm/s and the “complex stability constant (Kstab) with RAME-β-CD” value [2] was 170 ± 30 M⁻¹. The “complex stability constant (Kstab) with HP-β-CD” value [3] was 75 ± 5 M⁻¹, the “complex stability constant (Kstab) with Sualfadex” value [4] was 80 ± 15 M⁻¹ and the “complex stability constant (Kstab) with Succ-β-CD” value [5] was 360 ± 30 M⁻¹. The “complex stability constant (Kstab) with HxDMS-α-CD” value [6] was 110 ± 8 M⁻¹ and the “complex stability constant (Kstab) with ODMS-γ-CD” value [7] was 280 ± 25 M⁻¹.
